In patent publication US8722649B2, “Alpha-chloro and alpha-bromo phosphonate analogs of lysophosphatidic acid and methods of making and using thereof” (University of Utah Research Foundation, priority 2007, dated 2014):

Tests used:
human LPA1 = molecular target: T1, human LPA1 (Homo sapiens, UniProt Q92633); assay: Ca2+ mobilization assay, LPA1; format: cell-based; conditions: for EC50: RH7777 cells stably expressing LPA1, agonist mode; for IC50 / Ki: antagonist mode vs 200 nM LPA; for IC50: PA = partial antagonist, read-out: LPA1 IC50; for Ki: read-out: LPA1 (Ki)
T1 construct: expressed in transfected cells
Description: (§1) Receptor activation using Ca^2+ mobilization assay for diastereomers of 1 (also represented as 19b). The rat hepatoma (RH7777) cell lines individually expressing either LPA1, LPA2, LPA3 or LPA5 receptors and Chinese hamster ovary (CHO) cell line were analyzed to examine agonism and antagonism. […] CHO cells stably expressing either vector or LPA4 were kindly gifted from Dr. Shimizu (University of Tokyo, Tokyo, Japan).
(§2) Stable transformants of LPA1/2/3 receptors. RH7777 cells stably expressing each receptor were plated onto poly-L-lysine (PLL) (0.1 mg/mL)-coated black-wall clear-bottom 96-well plates (Corning Incorporated Life Sciences, Acton, Mass.) at a density of 5×10^4 cells/well and cultured overnight. The following day, the culture medium was replaced with modified Krebs buffer (120 mM NaCl, 5 mM KCl, 0.62 mM MgSO4, 1.8 mM CaCl2, 10 mM HEPES, 6 mM glucose, pH 7.4), and the cells were serum starved for 6 h. Subsequently, cells were loaded with Fura-2 AM (Invitrogen, Carlsbad, Calif.) for 35 min in modified Krebs buffer containing 2% (v/v) pluronic acid.
(§3) After incubating the cells with Fura-2 AM, the cells were rinsed with Krebs buffer and changes in the intracellular Ca^2+ concentration were monitored by determining the ratio of emitted light intensities at 520 nm in response to excitation at 340 and 380 nm using FLEXstation II (Molecular Devices, Sunnyvale, Calif.). Each well was monitored for 80-120 sec. For testing agonist activity of the compounds, the test compounds were added automatically after 15 sec of baseline measurement. To determine antagonist properties, varying concentrations of the compounds were mixed with a constant concentration of LPA and responses were monitored. Each test was performed in quadruplicate. EC50, IC50, and Ki values were calculated by fitting a sigmoid function to data points with the nonlinear curve-fitting feature of KaleidaGraph (Synergy Software, Essex Junction, Vt.).
Receptor activation using Ca^2+ mobilization assay. The assay for mobilization of intracellular Ca^2+ was performed as described. Briefly, rat hepatoma RH7777 cells stably expressing human LPA1, LPA2, or LPA3, and CHO cells stably expressing LPA4, were loaded with Fura-2 AM (Molecular Probes). Using a FLEXStation (Molecular Devices, Sunnyvale, Calif.), changes in intracellular Ca^2+ concentration were monitored. Ligand-induced changes in fluorescence were monitored for 80-120 seconds. Ca^2+ transients were quantified automatically by calculating the difference between maximum and baseline ratio values for each sample. To determine antagonist properties, different concentrations of each analogue were mixed with either palmitoyl (16:0) or oleoyl (18:1) LPA (200 nM for LPA1 and LPA3, 10 nM for LPA2, and 400 nM for LPA4) (Avanti Polar Lipids, Inc., […], Ala.) and responses were recorded. Each test was performed in quadruplicate. EC50, IC50, and Ki values were calculated as described. The ligand properties of the compounds were evaluated using Ca^2+ mobilization assay for assessing the activation/inhibition of LPA1, LPA2, and LPA3 expressed in RH7777 cells and LPA4 expressed in CHO cells. Table l illustrates calcium responses elicited through the activation of human LPA1, LPA2, LPA3 and LPA4 receptors. These cell lines have been used extensively for the characterization of LPA GPCR ligands because RH7777 cells are intrinsically unresponsive to LPA and CHO cells show minimal endogenous responses to LPA unless transfected with LPA4.

human LPA2 = molecular target: T2, human LPA2 (Homo sapiens, UniProt Q9HBW0); assay: Ca2+ mobilization assay, LPA2; format: cell-based; conditions: for EC50: RH7777 cells stably expressing LPA2, agonist mode; for IC50 / Ki: antagonist mode vs 10 nM LPA; for IC50: PA = partial antagonist, read-out: LPA2 IC50; for Ki: read-out: LPA2 (Ki)
T2 construct: expressed in transfected cells
Description: as §1, §2
as §3, with “To determine antagonist properties, varying concentrations of the compounds were mixed with a constant concentration of LPA and responses were monitored.” left out
(§4) Receptor activation using Ca^2+ mobilization assay. The assay for mobilization of intracellular Ca^2+ was performed as described. Briefly, rat hepatoma RH7777 cells stably expressing human LPA1, LPA2, or LPA3, and CHO cells stably expressing LPA4, were loaded with Fura-2 AM (Molecular Probes). Using a FLEXStation (Molecular Devices, Sunnyvale, Calif.), changes in intracellular Ca^2+ concentration were monitored. Ligand-induced changes in fluorescence were monitored for 80-120 seconds. Ca^2+ transients were quantified automatically by calculating the difference between maximum and baseline ratio values for each sample. […] Each test was performed in quadruplicate. EC50, IC50, and Ki values were calculated as described. The ligand properties of the compounds were evaluated using Ca^2+ mobilization assay for assessing the activation/inhibition of LPA1, LPA2, and LPA3 expressed in RH7777 cells and LPA4 expressed in CHO cells.

human LPA3 = molecular target: T3, human LPA3 (Homo sapiens, UniProt Q9UBY5); assay: Ca2+ mobilization assay, LPA3; format: cell-based; conditions: for EC50: RH7777 cells stably expressing LPA3, agonist mode
T3 construct: expressed in transfected cells
T3 sequence (Q9UBY5 1-353): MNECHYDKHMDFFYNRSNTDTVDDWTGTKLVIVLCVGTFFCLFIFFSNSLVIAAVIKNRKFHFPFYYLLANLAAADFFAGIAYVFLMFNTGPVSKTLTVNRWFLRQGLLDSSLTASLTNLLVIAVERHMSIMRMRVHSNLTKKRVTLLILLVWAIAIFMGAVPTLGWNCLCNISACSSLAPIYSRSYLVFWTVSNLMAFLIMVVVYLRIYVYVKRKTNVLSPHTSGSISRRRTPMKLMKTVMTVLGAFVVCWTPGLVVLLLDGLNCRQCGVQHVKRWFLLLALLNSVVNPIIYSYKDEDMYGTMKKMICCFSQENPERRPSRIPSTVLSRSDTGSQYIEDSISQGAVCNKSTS
Description: as §1, §2
as §3, with “To determine antagonist properties, varying concentrations of the compounds were mixed with a constant concentration of LPA and responses were monitored.” left out
as §4

human LPA4 = molecular target: T4, human LPA4 (Homo sapiens, UniProt Q99677); assay: Ca2+ mobilization assay, LPA4 in CHO cells; format: cell-based; conditions: for EC50: CHO cells stably expressing LPA4, agonist mode
T4 construct: expressed in transfected cells
Description: as §1
Stable transformants of LPA4. CHO cells stably expressing either vector or LPA4 were plated on non-coated 96 well plates at a density of 4×10^4 cells/well and cultured overnight. The following day, cells were loaded with Fura-2 AM for 1 h in modified Krebs buffer containing 2% (v/v) pluronic acid and 2.5 mM probenecid.
as §3, with “To determine antagonist properties, varying concentrations of the compounds were mixed with a constant concentration of LPA and responses were monitored.” left out
as §4

recombinant ATX-HA = molecular target: T5, recombinant ATX-HA (Homo sapiens, UniProt Q13822); assay: Autotaxin assay (FS-3 hydrolysis); format: biochemical; conditions: 10.0 μM, FS-3 substrate, preliminary single-dose screen; for inhibition at 10 µM: read-out: Inhibition (%) of autotaxin (ATX) phosphodiesterase activity
T5 construct: HA
Description: Autotaxin Assay. This assay utilizes FS-3 (Echelon Biosciences, Inc. Salt Lake City, Utah) as substrate and recombinant ATX-HA. For analysis, 50 μl of ATX-HA (0.25 μg) in assay buffer (Tris 50 mM, NaCl 140 mM, KCl 5mM, CaCl2 1 mM, MgCl2 1 mM, pH 8.0) was mixed with 25 μl of FS-3 (1 μM final concentration in assay buffer) and 25 μl of test compound dissolved in assay buffer containing 1:1.5 bovine serum albumin in 96-well plate. FS-3 fluorescence was monitored using FLEXstation fluorescence plate reader at a time zero and after 2 hours of incubation at 37° C. at excitation and emission wavelengths of 485 nm and 538 nm, respectively. Data was normalized to the corresponding vehicle control and the mean±standard deviation of triplicate wells were expressed as percent ATX inhibition. IC50, and Ki values were calculated as described.

T2 sequence (Q9HBW0 whole entry): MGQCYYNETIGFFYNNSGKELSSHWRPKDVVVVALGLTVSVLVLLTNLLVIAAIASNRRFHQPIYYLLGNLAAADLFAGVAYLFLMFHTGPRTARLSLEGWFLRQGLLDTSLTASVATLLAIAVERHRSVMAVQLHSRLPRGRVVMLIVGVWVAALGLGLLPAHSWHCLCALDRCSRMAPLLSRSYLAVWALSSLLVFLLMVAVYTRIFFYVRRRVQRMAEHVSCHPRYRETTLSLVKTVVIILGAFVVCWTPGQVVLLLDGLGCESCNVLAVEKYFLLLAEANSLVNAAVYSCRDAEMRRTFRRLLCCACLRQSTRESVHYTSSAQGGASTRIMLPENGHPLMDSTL
T4 sequence (Q99677 whole entry): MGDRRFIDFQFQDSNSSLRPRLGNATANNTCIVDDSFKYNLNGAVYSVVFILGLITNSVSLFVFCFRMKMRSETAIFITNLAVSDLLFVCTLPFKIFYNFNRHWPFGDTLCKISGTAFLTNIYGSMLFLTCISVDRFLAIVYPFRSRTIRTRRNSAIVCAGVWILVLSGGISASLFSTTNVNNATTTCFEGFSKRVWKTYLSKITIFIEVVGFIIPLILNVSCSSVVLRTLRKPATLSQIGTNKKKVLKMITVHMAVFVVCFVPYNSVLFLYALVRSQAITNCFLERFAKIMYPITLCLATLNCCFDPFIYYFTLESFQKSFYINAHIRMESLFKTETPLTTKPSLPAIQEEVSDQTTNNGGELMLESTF
T1 sequence (Q92633 whole entry): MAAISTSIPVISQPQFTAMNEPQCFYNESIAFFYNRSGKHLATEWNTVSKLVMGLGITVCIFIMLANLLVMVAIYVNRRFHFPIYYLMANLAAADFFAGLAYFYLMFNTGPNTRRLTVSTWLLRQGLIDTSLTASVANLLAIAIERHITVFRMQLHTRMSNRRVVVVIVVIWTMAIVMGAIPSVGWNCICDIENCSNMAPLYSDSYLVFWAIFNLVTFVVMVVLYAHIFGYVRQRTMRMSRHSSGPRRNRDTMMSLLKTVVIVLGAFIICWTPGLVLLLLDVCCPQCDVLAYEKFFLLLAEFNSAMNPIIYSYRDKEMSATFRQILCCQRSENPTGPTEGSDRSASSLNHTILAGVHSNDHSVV

Row | EC50 (human LPA1) | IC50 (human LPA1) | Ki (human LPA1) | EC50 (human LPA2) | IC50 (human LPA2) | Ki (human LPA2) | EC50 (human LPA3) | Ki (human LPA3; antagonist mode vs 200 nM LPA, read-out: LPA3 (Ki)) | IC50 (human LPA3; read-out: LPA3 IC50) | EC50 (human LPA4) | inhibition at 30 µM (human LPA4; CHO, read-out: LPA4 inhibition of 400 nM LPA response) | inhibition at 10 µM (recombinant ATX-HA) | Emax (human LPA3; Emax = (maximal efficacy of compound/maximal efficacy of LPA 18:1) × 100) | IC50 (human LPA4) | Ki (human LPA4; antagonist mode vs 400 nM LPA) | Inhibition (%) of autotaxin (ATX) phosphodiesterase activity (recombinant ATX-HA) | Compound
1 | > 30 µM | 2.49 ± 0.69 µM | 0.919 µM | > 30 µM | 0.855 µM | 0.428 µM | > 30 µM | 0.0983 µM | 0.175 µM | > 30 µM | 80% | 83 ± 2.1% | – | – | – | – | CCCCCCCCCCCCCCCC(=O)OC[C@@H](O)CC(Cl)P(=O)(O)O (mixture of isomers) [Compound 18b, [1-Chloro-3(S)-hydroxyl-4-(palmitoyloxy)butyl]-phosphonate]
2 | > 30 µM | 1.62 ± 0.116 µM | 0.694 µM | > 30 µM | 0.815 ± 0.06 µM | 0.174 µM | > 2.47 µM | – | – | > 30 µM | – | > 90% | 44.2% | 4 ± 0.424 µM | 2.5 µM | 90.7 ± 2.3% | CCCCCCCC/C=C\CCCCCCCC(=O)OC[C@@H](O)CC(Br)P(=O)(O)O (mixture of isomers) [Compound 19a, [1-Bromo-3(S)-hydroxyl-4-(oleoyloxy)butyl]-phosphonate]
3 | > 30 µM | > 30 µM | – | > 30 µM | – | – | > 30 µM | – | – | > 30 µM | – | – | – | – | – | 56.6% | CCCCCCCCCCCCCCCC(=O)OCC(O)CC(O)P(=O)([O-])O.[Na+] (stereo not shown) [Compound 24a, reference compound]
4 | > 30 µM | > 30 µM | – | > 30 µM | – | – | > 30 µM | – | – | > 30 µM | – | – | – | – | – | 43.4% | CCCCCCCCCCCCCCCC(=O)OCC(O)CC(O)P(=O)([O-])O.[Na+] (stereo not shown) [Compound 24b, reference compound]
